In US20080153888A1, “ALPHA-2-DELTA LIGAND/NSAID THERAPEUTIC TREATMENT OF LOWER URINARY TRACT DISORDERS” (Recordati Ireland Limited, priority 2006, published 2008):

Test system: anesthetized rats with acetic acid bladder infusion (animal model of overactive bladder)
Assay: Cystometry in anesthetized rats with acetic acid bladder infusion;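 also: Single-filling cystometrograms via bladder-dome catheter, basal values taken after 60 min saline infusion, BVC as mL infused until micturition, MP as peak intravesical pressure (mm Hg)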
Type: in vivo, rat
Details: for % Bladder Volume Capacity (vs basal) ± S.E. / ED60 (CL 95%) of recovery of Bladder Volume Capacity to basal value: single drug; for % Bladder Volume Capacity (vs basal) ± S.E.: cumulative administration; for ED60 (CL 95%) of recovery of Bladder Volume Capacity to basal value: i.v., cumulative dose-response
Protocol: Female rats (225-250 g body weight) were anesthetized with urethane (1.25 g/kg s.c.) and a catheter (PE-50, 0.58 mm I.D.×0.96 mm O.D.) was inserted into the jugular vein for intravenous drug administration. A midline lower abdominal incision was made and a second PE-50 catheter was inserted into the bladder dome for bladder filling and pressure recording, and the incision was sutured.
Dosages were administered by injection in a volume of 1 ml per kg body weight.
a) Saline was continuously infused at a rate of 0.055 ml/min by mean of a peristaltic pump via the bladder-filling catheter for 60 minutes to obtain a baseline of bladder activity. Then the infusion pump was stopped and the bladder was emptied of residual fluid by capillarity via the infusion catheter. After this procedure, a single filling cystometrogram was performed in order to determine the two urodynamic parameters: bladder volume capacity (BVC) and micturition pressure (MP) (BVC and MP BASAL VALUES).
After 30 minutes of acetic acid infusion, 3 vehicle injections were made at 20 minute intervals. Then the infusion pump was stopped, the bladder was emptied and a single filling cystometrogram was recorded as reported before (BVC and MP VALUES AFTER IRRITATION).
This procedure was repeated for three times in order to follow a cumulative dose-response protocol.
BVC is defined as the volume (mL) of fluid (saline or dilute acetic acid) infused in the bladder necessary to induce detrusor contractions followed by micturition. MP is defined as the maximal intravesical pressure (mm Hg) determined by the contraction of the detrusor during micturition.
Changes in bladder capacity for each animal were expressed as “% bladder volume capacity vs. basal (saline infusion)” and an increase in this index was used as measure of efficacy (recovery from irritation to basal value).

| Structure (SMILES) | % Bladder Volume Capacity (vs basal) ± S.E. (dose 0.3 mg/kg i.v.) [%] | % Bladder Volume Capacity (vs basal) ± S.E. (dose 1.0 mg/kg i.v.) [%] | % Bladder Volume Capacity (vs basal) ± S.E. (dose 3 mg/kg i.v.) [%] | ED60 (CL 95%) of recovery of Bladder Volume Capacity to basal value | % Bladder Volume Capacity (vs basal) ± S.E. (dose 0.1 mg/kg i.v.) [%] | % Bladder Volume Capacity (vs basal) ± S.E. (dose 3 mg/kg i.v., 3 mg/kg) [%] | % Bladder Volume Capacity (vs basal) ± S.E. (dose 10 mg/kg i.v.) [%] | % Bladder Volume Capacity (vs basal) ± S.E. (dose 30 mg/kg i.v.) [%] | % Bladder Volume Capacity (vs basal) ± S.E. (dose 60 mg/kg i.v.) [%] | % Bladder Volume Capacity (vs basal) ± S.E. (dose 100 mg/kg i.v.) [%] | % Bladder Volume Capacity (vs basal) ± S.E. (dose 300 mg/kg i.v.) [%] | micturition pressure (MP) (after increase of MP induced by acetic acid infusion, data not shown) |
| --- | --- | --- | --- | --- | --- | --- | --- | --- | --- | --- | --- | --- |
| O=C(O)Cc1ccccc1Nc1c(Cl)cccc1Cl [Diclofenac, diclofenac] | 41 ± 10 | 63 ± 13 | 82 ± 15 | 0.85 (0.80-0.90) |  |  |  |  |  |  |  |  |
| CC(C(=O)O)c1ccc(-c2ccccc2)c(F)c1 (stereo not shown) [Flurbiprofen, flurbiprofen] | 42 ± 6 | 49 ± 9 |  | 2.34 (nc-4.77) | 43 ± 11 | 62 ± 10 | 73 ± 12 |  |  |  |  |  |
| NCC1(CC(=O)O)CCCCC1 [Gabapentin] |  |  |  | 112 (75-149) |  |  |  | 27 ± 4 | 51 ± 15 | 55 ± 9 | 82 ± 12 |  |
| CS(=O)(=O)Nc1ccc([N+](=O)[O-])cc1Oc1ccccc1 [Nimesulide] | 38 ± 10 | 36 ± 12 | 37 ± 7 | >>10 |  |  | 47 ± 15 |  |  |  |  |  |
| CC(C)C[C@H](CN)CC(=O)O [Pregabalin, pregabalin] |  |  |  | 300.5 (n.c.-n.c.) |  |  | 31 ± 6 | 35 ± 6 |  | 52 ± 8 |  | recovered to basal values |
| CC1=C(CC(=O)O)c2cc(F)ccc2/C1=C\c1ccc([S+](C)[O-])cc1 (stereo not shown) [Sulindac, sulindac] | 27 ± 5 | 39 ± 11 | 34 ± 8 | >30 |  |  | 38 ± 4 | 54 ± 8 |  |  |  |  |
